# Entries after “also recorded” stand apart in the source; their conditions may differ.
# Key:
# Dengue virus serotype 2 = test: Dengue virus protein western blot in HEK 293 cells; format: cell-based; settings: 0.1 uM, pre-treated 18 hours, MOI=1.0, 48 hours
# Protocol: HEK 293 cells were seeded to a confluency of 80% in a 6-well dish. Cells were grown for 18 hours under normal growth conditions. Cells were treated with the indicated concentration of KIN101 in media containing 0.5% DMSO for 18 hours. The next day drug was removed from treated cells and cells were infected with Dengue virus serotype 2 at an MOI=1.0; infected cells were incubated under normal growth conditions for 48 hours. For Dengue virus analysis whole cell lysates were prepared and analyzed by western blot for Dengue virus specific proteins.
# MRC5 cells = test: Expression microarray analysis of KIN101-treated MRC5 cells; format: cell-based, human; settings: 10 μM
# Protocol: Expression microarray analysis and bioinformatics were performed as follows. Total RNA isolation and mRNA amplification were performed on equal masses of total RNA from MRC5 cells treated with either DMSO, negative control, or 10 μM KIN101 at 20 hours post treatment, and from MRC5 cells infected with Sendai virus at 20 hours post infection. Probe labeling and microarray slide hybridization were performed with the Agilent Whole Human Genome microarrays, wherein each microarray contains 44K probes, corresponding to approximately 41,000 human genes. Slides were scanned with an Agilent DNA microarray scanner, and the resulting images were analyzed using Agilent Feature Extractor (AFE) version 9.5.3.1. All data were entered into a custom-designed Oracle 9i-backed relational database (Labkey, Inc., Seattle, Wash.) and uploaded into Rosetta Resolver System 7.2 (Rosetta Biosoftware) and Spotfire Decision Site 9.1.1 (Spotfire AB) for analysis and visualization. […] Functional analysis of statistically significant gene expression changes was performed with IPA® (Ingenuity Systems, Inc., Redwood City, Calif.). This software analyzes RNA expression data in the context of known biological response and regulatory networks as well as other higher-order response pathways. IPA functional analysis identified biological functions and/or diseases that were most significant among differentially regulated genes. In the functional networks, genes are represented as nodes, and the biological relationship between 2 nodes is represented as an edge (line). All edges are supported by at least 1 published reference or from canonical information stored in the Ingenuity Pathways Knowledge Base. MRC5 cells were treated with KIN101 (10 μM) or a negative control (selected from the diversity library for having no activity in screening assays) for 20 h. Sendai virus infection was used as a positive control for the up-regulation of innate immune pathways. Total RNA was purified from triplicate samples to enable statistical analysis of the microarray data.
# IRF-3 [1] = test: Immunofluorescent assay for nuclear translocation of IRF-3 in Huh7 cells; format: cell-based, human; settings: 10 μM, 18 h
# Protocol: Huh 7 cells were seeded in clear bottom 96-well tissue culture plates at a density of 5×10^3 cells per well and grown for 24 hours. Cells were treated with compounds at final concentrations of 20 μM and 10 μM in media containing 0.5% DMSO. Negative control cells contain 0.5% DMSO only and positive control cells were infected with 10 HA of Sendai virus. […] Staining was performed as directed by instructions in the Cellomics translocation kit (Thermo Scientific). Rabbit polyclonal antibody against IRF-3 was used (1:400). Secondary anti-rabbit antibody conjugated to Dylight 488 (FITC equivalent) and Hoescht dye (nuclear stain) were used for detection of cellular IRF-3 and cell nuclei. Following secondary antibody incubation the monolayers were washed and left in 100 μL wash buffer for imaging. IRF-3 (FITC) and nuclear staining (DAPI) were viewed and quantitated by inverted microscope. Images were taken using MetaMorph software and saved as high resolution image files. Compound treatments were done in triplicate.
# ISG54 promoter = ISG54 promoter luciferase reporter assay / high-throughput screen in Huh 7 cells; format: cell-based, human
# Protocol: A compound referred to herein as “KIN101” was identified by the screening methods disclosed herein as a RIG-I modulator. Huh 7 cells stably expressing a luciferase cistron driven by the ISG54 promoter were treated with KIN101 for 18 hours and then analyzed for luciferase production. […] Huh 7 cells were stably transfected with a luciferase promoter construct driven by the consensus ISG54 promoter. The following sequence was inserted into the pGL4.17 construct (Promega) using the restriction sites indicated (underlined): Reporter cell lines were cultured under antibiotic selection until seeding. Cells were seeded in white opaque bottom 96-well tissue culture plates at a density of 1×10^4 cells/well and grown for 24 hours without antibiotic selection. […] The remainder of the wells were treated with compound diluted to a final concentration of 10 μM in media containing 0.5% DMSO. Cells were incubated with control or compound treatment for 24 hours. Steady-Glo luciferase reagent (Promega) was added at 50 μL per well, mixed thoroughly, and incubated at room temperature for 20 minutes. Luminescence was quantitated per well using a luminometer (Berthold). Confirmation of initial hits was performed in triplicate.
# [2] = tested on: Influenza A virus WSN strain; test: Influenza A antiviral assays (NP ELISA, western blot); format: cell-based; settings: NP protein ELISA / western blot
# HCV-2a = HCV-2a antiviral assays in Huh 7 cells (immunofluorescence, qPCR); format: cell-based, Hepatitis C virus; settings: Huh7 cells, HCV-2a MOI 1.0
# Protocol: Huh 7 cells were treated with KIN101 for 24 hours and then infected with HCV-2a MOI=1.0. Cells were grown for an additional 48 hours and then stained for HCV proteins. The number of infected cells versus concentration of KIN101 added was plotted in panel A.
# Huh 7 cells were pre-treated with KIN101 at 10 uM and grown for 18 hours. Cells were then infected with HCV-2a MOI=1.0 and grown for an additional 72 hours. Supernatants from infected cells were harvested, HCV RNA was purified and viral RNA quantitated utilizing Real Time PCR with HCV specific primers. Cells infected with HCV that were not KIN101-treated were utilized as a control and values set to 100% infection rate. Interferon-alpha was used as a positive control for HCV inhibition.
# Huh 7 cells were infected with HCV-2a MOI=1.0 and 4 hours following infection compounds or interferon were added to infected cells. The remainder of experiment was performed as described for FIG. 7B.
# Huh 7 cells were seeded as described above for the IRF-3 immunofluorescent assay. Cells were treated with 10 μM compound in media containing 0.5% DMSO. […] The number of infected cells was quantitated based on positive staining. […]
# Huh 7 cells were seeded and treated as described above for the HCV antiviral assay. […] The genome copies of HCV2a in 5 μL of RNA purified from supernatants was quantitated by qPCR. […]
# RSV = RSV plaque formation in HeLa cells; format: cell-based, respiratory syncitial virus (RSV); settings: MOI=1.0 or 0.1, 10 uM in agar overlay, 3-4 days
# Protocol: HeLa cells were seeded to 90% confluency and infected with RSV at MOI=1.0 (1^3 dilution) or MOI=0.1 (1^4 dilution) for 2 hours. Virus was removed and cells were overlayed with agar in the presence of KIN101 10 uM. Infected cells were incubated for 3-4 days to allow for RSV plaque formation. Plaques were visualized by staining with crystal violet.
# Huh7 cells = format: cell-based, human
# Protocol: To assess a potential effect of KIN101 on cellular metabolism, Huh7 cells were grown for 48 hours with increasing doses of KIN101 and analyzed using an MTS assay (the higher the O.D. the more metabolism occurring).
# Huh 7 cells were seeded in clear bottom 96-well tissue culture plates and grown for 24 hours. Seeded cells were treated with increasing concentrations of compound (0, 5, 10, 20, and 50 μM in media containing 0.5% DMSO) for 24 hours. Negative control wells contained 0.5% DMSO only and positive control for cytotoxicity was examined using an EMCV infection which causes 100% cytopathic effect. The proportion of viable cells was calculated using a cell viability assay that measures conversion of a tetrazolium compound [[…]-5-(3-carboxymethoxyphenyl)-2-(4-sulfophenyl)-2H-tetrazolium, inner salt; MTS] to a colored formazan compound in live cells. The conversion of MTS to formazan was detected by a 96-well microtiter plate reader, and the resulting optical densities (O.D.) were used directly to estimate cell viability. Cells were incubated for three hours in the presence of one-step reagent (Cell Titer One, Promega) before O.D. reading was done. Experiments were performed in triplicate.
# actin promoter = actin promoter luciferase counter screen in Huh 7 cells; format: cell-based, human; settings: 10 uM
# [3] = tested on: proteins downstream of IRF activation; test: Western blot of IRF centric gene products in treated cells; format: cell-based, human; settings: after KIN101 treatment; IFN-β positive control
# Description: Western blot was used to quantitate levels of IRF centric gene products in human whole cell lysates from cells treated with KIN101.
# RSV-A2 = test: RSV viral RNA by Real Time PCR in HeLa supernatants; format: cell-based, respiratory syncitial virus (RSV); settings: RSV-A2 MOI=1.0, 48 hours
# Protocol: HeLa cells were infected with RSV-A2 MOI=1.0 and subsequently treated with KIN101 at the indicated concentrations and grown for 48 hours. Supernatants from infected cells were harvested, RSV RNA was purified and viral RNA quantitated utilizing Real Time PCR with RSV specific primers. Cells infected with RSV that were not KIN101-treated were utilized as a control.
# IRF-3 [4] = test: IRF-3 nuclear translocation in cells expressing HCV NS3-4A protease (viral countermeasure); settings: human osteosarcoma cells expressing HCV NS3-4A protease, 10 μM, 18 h
# Protocol: Human osteosarcoma cells were stably transformed with the HCV NS3-4A protease coding sequence under control of a tetracycline inducible promoter. Cells were grown in the presence of tetracycline to keep expression of HCV protease off. […] Sendai virus infection was used as a control for IRF-3 translocation that was inhibited by HCV NS3-4A protease. Mock-treated cells were grown in media containing 0.5% DMSO. Images were analyzed on an Array Scan VTI to quantitate the IRF-3 staining in the nucleus and cytoplasm.
# U2OS NS3/4A cells were thoroughly washed to remove Tetracycline and then seeded for the assay in the absence of Tetracycline to enable NS3/4A expression. Compound treatments were done as described above for Huh 7 cells.
# RSV A2 strain = test: RSV-infected HeLa cell viability (trypan blue count); format: cell-based, respiratory syncitial virus (RSV); settings: HeLa cells, RSV A2 MOI=1.0, treated 48 hours
# Protocol: HeLa cells were infected with RSV A2 strain MOI=1.0 and were then treated with KIN101 for 48 hours. Cells were grown under normal growth conditions and cell viability was determined by counting the number of live cells and comparing drug treated and RSV infected cells to infected cells that were mock treated (no drug; vehicle alone). Cells were stained with trypan blue and counted using a hemacytometer. The number of live cells versus concentration of KIN101 added was plotted.
# [5] = 20 h, ANOVA p-value <0.01, >2 fold change
smiles,measurement,setting,value
CS(=O)(=O)Oc1ccc2c(=O)c(-c3ccc(Br)cc3)coc2c1 [KIN101],inhibition of Dengue virus protein accumulation,Dengue virus serotype 2,substantially complete inhibition
same,differentially expressed genes compared to DMSO treatment,MRC5 cells; [5],75 genes
same,down-regulated genes compared to DMSO treatment,MRC5 cells; [5],11 genes
same,up-regulated genes compared to DMSO treatment,MRC5 cells; [5],64 genes
same,expression of immune pathways,MRC5 cells; 20 hours post treatment,induced expression of discrete immune pathways centered on IRF signaling
same,IRF-3 nuclear translocation,IRF-3 [1],induced nuclear translocation of IRF-3; also recorded: induction of IRF-3 nuclear translocation
same,hit in high-throughput screen for ISG54 luciferase reporter activity (RIG-I agonist activity),"ISG54 promoter; 20,000-member diversity library screened at 10 μM, four standard deviation threshold",hits
same,luciferase expression under control of the ISG54 promoter,"ISG54 promoter; Huh 7 cells, treated 18 hours, increasing doses",dose dependent increase in luciferase expression
same,antiviral activity against Influenza A,[2],antiviral activity
same,antiviral activity against HCV,HCV-2a,antiviral activity
same,number and size of RSV induced plaques,RSV,decreases the number and size of viral induced plaques
same,effect on cellular metabolism (MTS assay),Huh7 cells,did not affect cellular metabolism
same,expression of luciferase under control of the actin promoter,actin promoter,did not increase expression of luciferase
same,abundance of proteins downstream of IRF activation (Western blot),[3],increased abundance of proteins downstream of IRF activation
same,amount of RSV viral RNA produced by infected cells,RSV-A2,decreases the amount of RSV viral RNA produced by infected cells
same,IRF-3 nuclear translocation in the presence of viral countermeasure,IRF-3 [4],induction of IRF-3 nuclear translocation
same,protection from RSV induced cytopathic effects and cell death,RSV A2 strain,protects cells from RSV induced cytopathic effects and cell death

# Reference: patent publication US9458492B2, “Methods and cells for identifying RIG-I pathway regulators” (Kineta, Inc., priority 2011, dated 2016)
